Test results taken from article PMC8067754, “Active Transport of Hepatotoxic Pyrrolizidine Alkaloids in HepaRG Cells” (International Journal of Molecular Sciences, 2021).
“And” between values parts separate entries of the source, which are not always exact repeats. Equal entries are not always repeated.

Assays:
[1] = biological target: T1, SLC22A1 (Homo sapiens, UniProt O15245); experiment: ASP+ (SLC22A1 substrate) uptake measurement in HepaRG cells; format: cell-based; conditions: for fluorescence [%], MW [%]: solv ctrl = 100
T1 construct: For measuring the uptake of ASP^+ in HepaRG cells incubated with PAs; endogenous in cells; host or cells: differentiated HepaRG cells (human hepatoma)
T1 sequence (O15245 1-554): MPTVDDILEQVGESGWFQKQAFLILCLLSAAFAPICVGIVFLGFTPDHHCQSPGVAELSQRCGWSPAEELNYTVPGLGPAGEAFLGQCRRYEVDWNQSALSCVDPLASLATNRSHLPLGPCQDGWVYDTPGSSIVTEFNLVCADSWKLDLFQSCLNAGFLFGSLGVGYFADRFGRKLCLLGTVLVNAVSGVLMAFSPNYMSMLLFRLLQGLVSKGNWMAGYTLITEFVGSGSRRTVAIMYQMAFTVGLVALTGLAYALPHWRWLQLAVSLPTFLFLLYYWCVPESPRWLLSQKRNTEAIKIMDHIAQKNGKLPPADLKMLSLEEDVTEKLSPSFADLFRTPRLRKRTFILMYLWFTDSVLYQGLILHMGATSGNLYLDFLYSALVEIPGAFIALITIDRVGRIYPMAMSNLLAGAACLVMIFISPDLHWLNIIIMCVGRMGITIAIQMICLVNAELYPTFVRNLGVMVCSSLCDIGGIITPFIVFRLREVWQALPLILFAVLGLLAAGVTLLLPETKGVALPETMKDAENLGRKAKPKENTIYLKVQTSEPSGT
Method: ASP^+ is an organic cationic mitochondrial dye that only fluoresces inside cells so that fluorescence measured in the cell culture medium can be neglected. […] In parallel, cells were incubated with Qu (100 µM) and TEA (3 mM) as mentioned in Section 4.3. After 24 h, cells were incubated with 1 µM ASP^+ in Hanks’ balanced salt solution (HBSS, Sigma-Aldrich, Taufkirchen, Germany) at 37 °C. Fluorescence was measured after 20 min at ASP^+-specific wavelength (λex = 475 nm and λem = 605 nm) on a TecanM200Pro spectrometer (Tecan Group Ltd., Männedorf, Switzerland) according to Ahlin et al., (2008).

[2] = Cell viability (MTT assay) of HepaRG cells with and without transporter inhibitors; format: cell-based, human; conditions: human, HepaRG cells, HepaRG, no PA, inhibitor alone 24 h: CsA 10 µM, Ko143 5 µM, MK571 50 µM, Qu 100 µM, TEA 3 mM; read-out: Cell viability (MTT), percent of solvent control, Mean [%]
Method: (§1) In the case of TEA, cells were pre-incubated 24 h prior to PA treatment. The inhibitors were applied anew at PA incubation.
To analyze the cytotoxic effects of PAs on HepaRG cells with non-inhibited and inhibited hepatic transporters, the cells were seeded at a density of 9000 cells per well in the inner 60 wells of a 96-well plate and cultivated as described in Section 4.2. After four weeks of cultivation, FBS concentration in the cell culture medium was reduced to 2% for 48 h prior incubation. Thereby, inhibitory effects of peptide growth factors from the FBS on xenobiotic-metabolizing enzymes were minimized. […] The cells were pre-incubated with pharmacological inhibitors as described in Section 4.3. […] Cell viability was analyzed via the MTT test. 10 µl MTT reagent (5 mg/mL MTT dissolved in phosphate-buffered saline, PBS) was added per well and incubated for 1 h at 37 °C. The supernatant was discarded, and the violet formazan crystals dissolved in 130 µL desorption solution (0.7% sodium dodecyl sulfate in propan-2-ol). After shaking for 20 min (under protection from light), absorbance was measured on a TecanM200Pro spectrometer (Tecan Group Ltd., Männedorf, Switzerland) at a wavelength of 570 nm, along with a reference wavelength of 630 nm.

[3] = system: HepaRG cells; experiment: PA and PANO content in cell culture medium of HepaRG cells upon pharmacological transporter inhibition (LC-MS/MS); format: in vitro ADME, human; conditions: HepaRG, 2.5 µM PA, 4, 8, 24 h; CsA 10 µM, Ko143 5 µM, MK-571 50 µM, Qu 100 µM, TEA 3 mM
Method: as §1
(§2) In order to measure time-dependent depletion of PA and PANO content in cell culture medium, cells were seeded at a density of 0.2 × 10^6 cells per well in a 6-well plate and cultivated as described in Section 4.2. After four weeks of cultivation, cells were adapted to serum-free medium and medium substituted with insulin, transferrin, selenium (ITS) serum extender (Capricorn Scientific, Ebsdorfergrund, Germany) 48 h prior to PA incubation for optimal LC-MS/MS measurements. […] Samples were taken after 2 h, 4 h, 8 h and 24 h.
(§3) Briefly, chromatographic separation of PA/PANO analytes was achieved on a 50 × 2.1 mm Kinetex ™ 2.6 μm CoreShell EVO C18 100 Å column protected by a SecurityGuard ™ ULTRA EVO C 18 2.1 mm guard column (both Phenomenex, Aschaffenburg, Germany) at a flow rate of 0.4 mL/min on a Shimadzu high performance liquid chromatography (HPLC) apparatus (LC-20AB, SIL-20AC HT, CTO-20AC, CBM-20A, Duisburg, Germany) coupled to an API4000 triple quadrupole MS (Sciex, Darmstadt, Germany). The following MS parameters were used for measurements in positive electrospray ionisation (ESI+) mode: ionisation voltage 2500 V, nebuliser gas 50 psi, heating gas 50 psi, curtain gas 30 psi, temperature 600 °C, collision gas level 7. The substance specific parameters are summarized in Kaltner et al. 2019 [79].

[4] = system: HepaRG cells; experiment: Time-dependent PA depletion and PANO formation in cell culture medium of HepaRG cells at 37 °C and 4 °C (LC-MS/MS); conditions: for PA content in cell culture medium, Mean [%]: 700 nM PA; for PA content in cell culture medium, Mean [%] / PANO content in cell culture medium, Mean [%]: percent of initial PA concentration; for PANO content in cell culture medium, Mean [%]: 700 nM parent PA
Method: as §2, §3

retrorsine
fluorescence [%], MW [%] ([1]; 1 µM): 89.2606%
fluorescence [%], MW [%] ([1]; 10 µM): 46.6068%
fluorescence [%], MW [%] ([1]; 50 µM): 25.7608%
fluorescence [%], MW [%] ([1]; 100 µM): 25.133%
fluorescence [%], MW [%] ([1]; 250 µM): 21.5057%
interaction with SLC22A1 ([1]; HepaRG): both inhibitors and substrates
minimum concentration inhibiting uptake of the SLC22A1-specific substrate ASP+ ([1]; HepaRG, 24 h): 10 µM

CN(C)C(=O)CCSC(SCCC(=O)O)c1cccc(/C=C/c2ccc3ccc(Cl)cc3n2)c1 (stereo not shown) [MK-571, reference compound]
viability at 24 h [2]: 106%
effect of inhibitor on retrorsine and senecionine uptake and PANO formation [3]: decelerated retrorsine and senecionine uptake and PANO excretion, but to a lesser extent than CsA

intermedine
PA content in cell culture medium, Mean [%] ([4]; HepaRG, 4 °C (cold), 0h): 107.988%
PA content in cell culture medium, Mean [%] ([4]; HepaRG, 4 °C (cold), 2h): 103.883%
PA content in cell culture medium, Mean [%] ([4]; HepaRG, 4 °C (cold), 4h): 102.163%
PA content in cell culture medium, Mean [%] ([4]; HepaRG, 4 °C (cold), 8h): 103.746%
PA content in cell culture medium, Mean [%] ([4]; HepaRG, 4 °C (cold), 24h): 100.748%
PA content in cell culture medium, Mean [%] ([4]; HepaRG, 37 °C (warm), 0h): 108.544%
PA content in cell culture medium, Mean [%] ([4]; HepaRG, 37 °C (warm), 2h): 103.044%
PA content in cell culture medium, Mean [%] ([4]; HepaRG, 37 °C (warm), 4h): 97.3218%
PA content in cell culture medium, Mean [%] ([4]; HepaRG, 37 °C (warm), 8h): 97.4673%
PA content in cell culture medium, Mean [%] ([4]; HepaRG, 37 °C (warm), 24h): 100.568%
PANO content in cell culture medium, Mean [%] ([4]; HepaRG, 4 °C (cold), 0h): 0%
PANO content in cell culture medium, Mean [%] ([4]; HepaRG, 4 °C (cold), 2h): 0.06406%
PANO content in cell culture medium, Mean [%] ([4]; HepaRG, 4 °C (cold), 4h): 0.04788%
PANO content in cell culture medium, Mean [%] ([4]; HepaRG, 4 °C (cold), 8h): 0.07456%
PANO content in cell culture medium, Mean [%] ([4]; HepaRG, 4 °C (cold), 24h): 0.022%
PANO content in cell culture medium, Mean [%] ([4]; HepaRG, 37 °C (warm), 0h): 0%
PANO content in cell culture medium, Mean [%] ([4]; HepaRG, 37 °C (warm), 2h): 0.04194%
PANO content in cell culture medium, Mean [%] ([4]; HepaRG, 37 °C (warm), 4h): 0.01862%
PANO content in cell culture medium, Mean [%] ([4]; HepaRG, 37 °C (warm), 8h): 0.0065%
PANO content in cell culture medium, Mean [%] ([4]; HepaRG, 37 °C (warm), 24h): 0.0275%
reduction of PA content in the supernatant ([4]; HepaRG, 37 °C, after 24 h, 700 nM): only little reduction
PA in medium, Mean [%] ([4]; cold, 0h): 100%
PA in medium, single replicates (repl.) ([4]; cold, 0h): 100%
PANO in medium, Mean [%] ([4]; cold, 0h): 0%
PANO in medium, single replicates (repl.) ([4]; cold, 0h): 0%
PA in medium, Mean [%] ([4]; cold, 2h): 96.2366%
PA in medium, single replicates (repl.) ([4]; cold, 2h): 96.0144% and 91.6565% and 102.06% and 95.215%
PANO in medium, Mean [%] ([4]; cold, 2h): 0.05112%
PANO in medium, single replicates (repl.) ([4]; cold, 2h): 0.03% and 0.05295% and 0.03688% and 0.08463%
PA in medium, Mean [%] ([4]; cold, 4h): 94.7318%
PA in medium, single replicates (repl.) ([4]; cold, 4h): 93.7752% and 93.3154% and 101.161% and 90.6753%
PANO in medium, Mean [%] ([4]; cold, 4h): 0.03748%
PANO in medium, single replicates (repl.) ([4]; cold, 4h): 0.02966% and 0.02637% and 0% and 0.09388%
PA in medium, Mean [%] ([4]; cold, 8h): 96.1713%
PA in medium, single replicates (repl.) ([4]; cold, 8h): 95.8013% and 89.4137% and 105.78% and 93.6906%
PANO in medium, Mean [%] ([4]; cold, 8h): 0.05989%
PANO in medium, single replicates (repl.) ([4]; cold, 8h): 0.03944% and 0.1014% and 0% and 0.09868%
PA in medium, Mean [%] ([4]; cold, 24h): 93.3405%
PA in medium, single replicates (repl.) ([4]; cold, 24h): 92.0698% and 90.9944% and 99.8071% and 90.4909%
PANO in medium, Mean [%] ([4]; cold, 24h): 0.01524%
PANO in medium, single replicates (repl.) ([4]; cold, 24h): 0.001348% and 0% (2×) and 0.05962%
PA in medium, Mean [%] ([4]; warm, 0h): 100%
PA in medium, single replicates (repl.) ([4]; warm, 0h): 100%
PANO in medium, Mean [%] ([4]; warm, 0h): 0%
PANO in medium, single replicates (repl.) ([4]; warm, 0h): 0%
PA in medium, Mean [%] ([4]; warm, 2h): 94.9033%
PA in medium, single replicates (repl.) ([4]; warm, 2h): 93.3617% and 94.7726% and 98.2992% and 93.1796%
PANO in medium, Mean [%] ([4]; warm, 2h): 0.03999%
PANO in medium, single replicates (repl.) ([4]; warm, 2h): 0.003057% and 0.04704% and 0.1099% and 0%
PA in medium, Mean [%] ([4]; warm, 4h): 89.9787%
PA in medium, single replicates (repl.) ([4]; warm, 4h): 93.5042% and 95.5972% and 80.8797% and 89.9336%
PANO in medium, Mean [%] ([4]; warm, 4h): 0.01797%
PANO in medium, single replicates (repl.) ([4]; warm, 4h): 0% (2×) and 0.07092% and 0.000941%
PA in medium, Mean [%] ([4]; warm, 8h): 90.1345%
PA in medium, single replicates (repl.) ([4]; warm, 8h): 94.7528% and 91.6017% and 83.3876% and 90.7959%
PANO in medium, Mean [%] ([4]; warm, 8h): 0.006117%
PANO in medium, single replicates (repl.) ([4]; warm, 8h): 0% (3×) and 0.02447%
PA in medium, Mean [%] ([4]; warm, 24h): 92.1206%
PA in medium, single replicates (repl.) ([4]; warm, 24h): 92.1111% and 85.5289% and 89.7263% and 101.116%
PANO in medium, Mean [%] ([4]; warm, 24h): 0.02621%
PANO in medium, single replicates (repl.) ([4]; warm, 24h): 0% (2×) and 0.05428% and 0.05058%
